The source of these data is PubChem BioAssay (NCI).

Test systems include SF-268 CNS; T-47D breast; NCI-H460 lung; EKVX NSCLC; HS 578T breast; M14 melanoma; OVCAR-5 ovarian; SK-OV-3 ovarian; SF-539 CNS; UO-31 renal; 786-0 renal.
Common to all, as to experiment: NCI tumour cell line growth inhibition, 48 h

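96-well plates; 48 h exposure; 5 concentrations. Endpoints by linear interpolation between flanking doses. Not reached: highest tested concentration assigned. TGI marks complete inhibition of growth.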

Turning to `S=c1[nH]n2c(COc3cc(Cl)c(OCc4nnc5sc(=S)[nH]n45)cc3Cl)nnc2s1`, the TGI in the assay on SF-268 CNS, with T-47D breast, in the assay on NCI-H460 lung, with EKVX NSCLC, in the assay on HS 578T breast and in the assay with M14 melanoma was more than 100 µM in each case. In addition, the TGI was more than 100 µM in the assay on OVCAR-5 ovarian; more than 100 µM in the assay with SK-OV-3 ovarian; more than 100 µM in the assay on SF-539 CNS; 86.4 µM with UO-31 renal; more than 100 µM with 786-0 renal.
Turning to `Oc1ccc(SCc2cc(O)ccc2O)cc1`, the TGI with SF-268 CNS was more than 62.7 µM; in the assay with T-47D breast, 30.5 µM; in the assay on NCI-H460 lung, more than 86.7 µM; in the assay on EKVX NSCLC, 41.7 µM; in the assay on HS 578T breast, 97 µM; in the assay on M14 melanoma it was 33.7 µM. The TGI in the assay with OVCAR-5 ovarian was 49.5 µM; in the assay on SK-OV-3 ovarian, more than 96.7 µM; in the assay on SF-539 CNS it was 12.4 µM; in the assay with UO-31 renal, 20.7 µM; with 786-0 renal it was 36.4 µM.
Consider `Cc1ccc2nc(C(=O)O)c(=O)[nH]c2c1`, for which the TGI in the assay on SF-268 CNS, in the assay on T-47D breast, with NCI-H460 lung, in the assay with EKVX NSCLC, in the assay with HS 578T breast and with M14 melanoma was more than 100 µM each time. For the same compound, the TGI with OVCAR-5 ovarian, with SK-OV-3 ovarian, with SF-539 CNS, with UO-31 renal and in the assay on 786-0 renal was more than 100 µM each time.
`COc1cc2c(cc1OC)C(=O)/C(=C/c1ccc(N(C)C)cc1)CC2`: the TGI in the assay with SF-268 CNS, with T-47D breast, with NCI-H460 lung, in the assay on EKVX NSCLC, in the assay on HS 578T breast and with M14 melanoma was more than 10 µM each time. In addition, the TGI in the assay with OVCAR-5 ovarian, in the assay on SK-OV-3 ovarian, in the assay on SF-539 CNS, in the assay on UO-31 renal and with 786-0 renal was more than 10 µM throughout.
Consider `CCC1CN2CCc3c([nH]c4ccccc34)[C@@](C(=O)OC)(c3cc4c(cc3OC)N(C)C3C(O)(C(=O)OC)C(C(=O)OC)C5(CC)C=CCN6CCC43C65)C[C@@H](C2)[C@@H]1C(C)(C)C` (some centres not stated), for which the TGI with SF-268 CNS was more than 10 µM; with T-47D breast it was more than 10 µM; in the assay on NCI-H460 lung, 2.34 µM; with EKVX NSCLC, more than 10 µM; in the assay on HS 578T breast, more than 6.86 µM; with M14 melanoma it was 8.22 µM. The TGI is more than 10 µM with OVCAR-5 ovarian; more than 10 µM in the assay with SK-OV-3 ovarian; 2.31 µM in the assay with SF-539 CNS; more than 6.12 µM in the assay on UO-31 renal; 7.16 µM in the assay with 786-0 renal.
Take `Cc1cc2occ(S(=O)(=O)NC(=O)Nc3ccc(Cl)cc3)c(=O)c2c(=O)o1`: the TGI in the assay with SF-268 CNS, in the assay with T-47D breast, with NCI-H460 lung, in the assay on EKVX NSCLC, in the assay with HS 578T breast and with M14 melanoma was more than 100 µM in each case. The TGI with OVCAR-5 ovarian, in the assay on SK-OV-3 ovarian, with SF-539 CNS, in the assay with UO-31 renal and in the assay with 786-0 renal was more than 100 µM in each case.
With `CCc1cc2c(c3c1CCCC3=O)CC1(C2)Cc2cc(CC)c3c(c2C1)C(=O)CCC3`, the TGI in the assay with SF-268 CNS, in the assay with T-47D breast, in the assay with NCI-H460 lung, in the assay on EKVX NSCLC, with HS 578T breast and in the assay on M14 melanoma was more than 100 µM each time. For the same compound, the TGI in the assay with OVCAR-5 ovarian, in the assay on SK-OV-3 ovarian, in the assay with SF-539 CNS, with UO-31 renal and in the assay with 786-0 renal was more than 100 µM in each case.
Take `COc1cccc(N=NN2CCCC2)c1`: the TGI in the assay on SF-268 CNS, in the assay on T-47D breast, in the assay with NCI-H460 lung, in the assay with EKVX NSCLC, in the assay with HS 578T breast and with M14 melanoma was more than 100 µM in each case. The TGI in the assay on OVCAR-5 ovarian, with SK-OV-3 ovarian, in the assay with SF-539 CNS, in the assay with UO-31 renal and in the assay on 786-0 renal was more than 100 µM throughout.
Take `CC(CC=O)Nc1nn2c(=O)c3ccccc3nc2s1` (configuration not stated): the TGI with SF-268 CNS, in the assay on T-47D breast, with NCI-H460 lung, with EKVX NSCLC, with HS 578T breast and in the assay on M14 melanoma was more than 100 µM in each case. Besides, the TGI in the assay on OVCAR-5 ovarian was more than 100 µM; in the assay with SK-OV-3 ovarian it was more than 100 µM; in the assay with SF-539 CNS, more than 100 µM; with UO-31 renal, 48.1 µM; in the assay on 786-0 renal, more than 100 µM.
Take `O=C1C2CC[C@@H]3C(=O)C(Cl)(Cl)[C@@H]3CCC2C1(Cl)Cl` (some centres not stated): the TGI in the assay on SF-268 CNS, with T-47D breast, with NCI-H460 lung, with EKVX NSCLC, in the assay on HS 578T breast and in the assay with M14 melanoma was more than 100 µM each time. Besides, the TGI in the assay on OVCAR-5 ovarian was more than 100 µM; with SK-OV-3 ovarian, more than 100 µM; with SF-539 CNS it was more than 90.5 µM; in the assay with UO-31 renal, more than 100 µM; in the assay with 786-0 renal, more than 100 µM.
In the case of `CC(NNC(=O)c1ccncc1)c1ccc(Cl)cc1Cl` (configuration not stated), the TGI in the assay with SF-268 CNS, in the assay on T-47D breast, in the assay with NCI-H460 lung, in the assay on EKVX NSCLC, with HS 578T breast and in the assay with M14 melanoma was more than 100 µM throughout. Further, the TGI in the assay with OVCAR-5 ovarian, with SK-OV-3 ovarian, in the assay on SF-539 CNS, in the assay on UO-31 renal and in the assay on 786-0 renal was more than 100 µM throughout.
Regarding `C[n+]1c2ccccc2c(C(=O)Nc2ccc(S(=O)(=O)Nc3ncccn3)cc2)c2ccccc21`, the TGI with SF-268 CNS, in the assay on T-47D breast, in the assay on NCI-H460 lung, in the assay with EKVX NSCLC, in the assay with HS 578T breast and in the assay with M14 melanoma was more than 100 µM throughout. The TGI with OVCAR-5 ovarian, with SK-OV-3 ovarian, in the assay on SF-539 CNS, with UO-31 renal and in the assay with 786-0 renal was more than 100 µM each time.
